From the NIST ThermoML archive (doi:10.1021/je049762q)
Where “and” joins values, the source holds several entries; their conditions need not be identical. Identical values can stand only once.

Experiment: molar heat capacity at constant pressure
Conditions: 101.33 kPa

Brc1cc(Br)cc(Br)c1 [1,3,5-tribromobenzene]
molar heat capacity at constant pressure
Conditions | Crystal | Liquid
6.52 K | 1.72 J/K/mol | –
6.88 K | 2.15 J/K/mol | –
6.95 K | 2.19 J/K/mol | –
7.15 K | 2.56 J/K/mol | –
7.61 K | 3.13 J/K/mol | –
7.91 K | 3.91 J/K/mol | –
8.43 K | 4.55 J/K/mol | –
8.64 K | 4.82 J/K/mol | –
9.26 K | 5.6 J/K/mol | –
9.48 K | 6.06 J/K/mol | –
9.98 K | 6.73 J/K/mol | –
10 K | 6.75 J/K/mol | –
10.55 K | 7.4 J/K/mol | –
10.76 K | 7.57 J/K/mol | –
11.09 K | 8.13 J/K/mol | –
11.43 K | 8.59 J/K/mol | –
12.2 K | 9.56 J/K/mol | –
12.4 K | 9.97 J/K/mol | –
13.02 K | 11.12 J/K/mol | –
13.44 K | 11.86 J/K/mol | –
13.52 K | 11.96 J/K/mol | –
14.28 K | 13.92 J/K/mol | –
14.41 K | 14.32 J/K/mol | –
14.86 K | 15.39 J/K/mol | –
15 K | 15.69 J/K/mol | –
15.24 K | 16.16 J/K/mol | –
15.97 K | 17.16 J/K/mol | –
16.24 K | 17.78 J/K/mol | –
16.42 K | 18.22 J/K/mol | –
16.81 K | 18.82 J/K/mol | –
17.75 K | 20.23 J/K/mol | –
18.13 K | 21.04 J/K/mol and 21.05 J/K/mol | –
18.35 K | 21.29 J/K/mol | –
18.91 K | 22.41 J/K/mol | –
19.3 K | 22.84 J/K/mol | –
19.96 K | 24.11 J/K/mol | –
20 K | 24.16 J/K/mol | –
20.32 K | 24.44 J/K/mol | –
20.36 K | 25.02 J/K/mol | –
20.69 K | 25.21 J/K/mol | –
20.91 K | 25.52 J/K/mol | –
21.28 K | 25.98 J/K/mol | –
21.33 K | 26.05 J/K/mol | –
22.22 K | 27.37 J/K/mol | –
22.85 K | 28.05 J/K/mol | –
23.13 K | 28.66 J/K/mol | –
23.5 K | 29.01 J/K/mol | –
25 K | 30.93 J/K/mol | –
25.43 K | 31.5 J/K/mol | –
25.52 K | 31.63 J/K/mol | –
25.66 K | 31.94 J/K/mol | –
27.61 K | 34.27 J/K/mol | –
28.08 K | 34.74 J/K/mol | –
29.8 K | 36.66 J/K/mol | –
30 K | 36.88 J/K/mol | –
30.83 K | 37.81 J/K/mol | –
32.02 K | 39.23 J/K/mol | –
33.45 K | 40.57 J/K/mol | –
34.29 K | 41.49 J/K/mol | –
35.86 K | 42.74 J/K/mol | –
36.6 K | 43.58 J/K/mol | –
38.95 K | 45.82 J/K/mol | –
40 K | 46.88 J/K/mol | –
41.31 K | 48.18 J/K/mol | –
43.74 K | 50.35 J/K/mol | –
46.2 K | 52.53 J/K/mol | –
48.69 K | 54.78 J/K/mol | –
50 K | 55.72 J/K/mol | –
51.22 K | 56.59 J/K/mol | –
53.78 K | 58.73 J/K/mol | –
56.38 K | 60.57 J/K/mol | –
59 K | 62.4 J/K/mol | –
60 K | 63.1 J/K/mol | –
61.66 K | 64.25 J/K/mol | –
64.34 K | 66.1 J/K/mol | –
67.06 K | 67.97 J/K/mol | –
69.79 K | 69.75 J/K/mol | –
70 K | 69.88 J/K/mol | –
72.55 K | 71.4 J/K/mol | –
75.33 K | 73.12 J/K/mol | –
78.14 K | 74.71 J/K/mol | –
80 K | 75.73 J/K/mol | –
80.95 K | 76.25 J/K/mol | –
83.79 K | 77.97 J/K/mol | –
84.19 K | 78.04 J/K/mol | –
86.63 K | 79.59 J/K/mol | –
87.47 K | 79.75 J/K/mol | –
89.49 K | 81.07 J/K/mol | –
90 K | 81.22 J/K/mol | –
90.65 K | 81.41 J/K/mol | –
92.36 K | 82.26 J/K/mol | –
93.74 K | 82.91 J/K/mol | –
95.25 K | 83.54 J/K/mol | –
96.75 K | 84.24 J/K/mol | –
98.15 K | 85.01 J/K/mol | –
99.69 K | 85.65 J/K/mol | –
100 K | 85.83 J/K/mol | –
101.04 K | 86.47 J/K/mol | –
102.61 K | 87.46 J/K/mol | –
105.54 K | 88.95 J/K/mol | –
108.48 K | 90.22 J/K/mol | –
110 K | 90.89 J/K/mol | –
111.43 K | 91.51 J/K/mol | –
114.39 K | 92.81 J/K/mol | –
117.36 K | 94.15 J/K/mol | –
120 K | 95.33 J/K/mol | –
120.34 K | 95.48 J/K/mol | –
123.32 K | 96.75 J/K/mol | –
126.31 K | 98.04 J/K/mol | –
129.31 K | 99.34 J/K/mol | –
130 K | 99.63 J/K/mol | –
132.31 K | 100.61 J/K/mol | –
135.32 K | 101.87 J/K/mol | –
138.33 K | 103.08 J/K/mol | –
140 K | 103.77 J/K/mol | –
141.34 K | 104.32 J/K/mol | –
144.36 K | 105.54 J/K/mol | –
147.39 K | 106.84 J/K/mol | –
150 K | 107.74 J/K/mol | –
150.41 K | 107.89 J/K/mol | –
153.44 K | 109.1 J/K/mol | –
156.48 K | 110.25 J/K/mol | –
159.51 K | 111.32 J/K/mol | –
160 K | 111.51 J/K/mol | –
162.55 K | 112.49 J/K/mol | –
165.6 K | 113.63 J/K/mol | –
168.64 K | 114.79 J/K/mol | –
170 K | 115.31 J/K/mol | –
171.69 K | 115.96 J/K/mol | –
174.73 K | 117.13 J/K/mol | –
177.78 K | 118.3 J/K/mol | –
180 K | 119.09 J/K/mol | –
180.84 K | 119.39 J/K/mol | –
183.89 K | 120.53 J/K/mol | –
186.94 K | 121.72 J/K/mol | –
190 K | 122.82 J/K/mol | –
193.05 K | 123.91 J/K/mol | –
196.11 K | 125.07 J/K/mol | –
199.17 K | 126.16 J/K/mol | –
200 K | 126.45 J/K/mol | –
202.22 K | 127.16 J/K/mol | –
205.28 K | 128.31 J/K/mol | –
208.34 K | 129.4 J/K/mol | –
210 K | 130.05 J/K/mol | –
211.4 K | 130.6 J/K/mol | –
214.46 K | 131.79 J/K/mol | –
217.52 K | 132.78 J/K/mol | –
220 K | 133.7 J/K/mol | –
220.58 K | 133.9 J/K/mol | –
223.64 K | 135.03 J/K/mol | –
226.7 K | 136.15 J/K/mol | –
229.77 K | 137.26 J/K/mol | –
230 K | 137.34 J/K/mol | –
232.83 K | 138.31 J/K/mol | –
235.89 K | 139.48 J/K/mol | –
238.95 K | 140.62 J/K/mol | –
240 K | 141.01 J/K/mol | –
242.01 K | 141.75 J/K/mol | –
245.07 K | 142.87 J/K/mol | –
248.12 K | 143.98 J/K/mol | –
250 K | 144.67 J/K/mol | –
251.17 K | 145.1 J/K/mol | –
254.22 K | 146.19 J/K/mol | –
257.27 K | 147.31 J/K/mol | –
260 K | 148.3 J/K/mol | –
260.32 K | 148.41 J/K/mol | –
263.36 K | 149.52 J/K/mol | –
266.41 K | 150.63 J/K/mol | –
269.46 K | 151.81 J/K/mol | –
270 K | 152.01 J/K/mol | –
272.51 K | 152.93 J/K/mol | –
275.56 K | 153.96 J/K/mol | –
278.61 K | 155.09 J/K/mol | –
280 K | 155.47 J/K/mol | –
281.65 K | 155.93 J/K/mol | –
284.69 K | 157.08 J/K/mol | –
287.74 K | 158.17 J/K/mol | –
290 K | 158.9 J/K/mol | –
290.78 K | 159.14 J/K/mol | –
293.81 K | 160 J/K/mol | –
296.86 K | 161.12 J/K/mol | –
298.15 K | 161.57 J/K/mol | –
299.91 K | 162.28 J/K/mol | –
300 K | 162.32 J/K/mol | –
302.95 K | 163.09 J/K/mol | –
306 K | 164.04 J/K/mol | –
306.85 K | 164.3 J/K/mol | –
309.04 K | 165.03 J/K/mol | –
310 K | 165.35 J/K/mol | –
310.25 K | 165.42 J/K/mol | –
312.08 K | 166.05 J/K/mol | –
313.63 K | 166.52 J/K/mol | –
315.12 K | 167.1 J/K/mol | –
317 K | 167.67 J/K/mol | –
320 K | 168.98 J/K/mol | –
320.37 K | 169.11 J/K/mol | –
323.72 K | 169.81 J/K/mol | –
327.06 K | 170.85 J/K/mol | –
330 K | 172.33 J/K/mol | –
330.4 K | 172.47 J/K/mol | –
333.72 K | 173.45 J/K/mol | –
337.03 K | 174.6 J/K/mol | –
340 K | 175.62 J/K/mol | –
340.34 K | 175.73 J/K/mol | –
343.63 K | 176.72 J/K/mol | –
346.92 K | 178.18 J/K/mol | –
350 K | 179.02 J/K/mol | –
350.2 K | 178.96 J/K/mol | –
353.46 K | 180.41 J/K/mol | –
356.72 K | 181 J/K/mol | –
357.65 K | 181.37 J/K/mol | –
359.97 K | 182.49 J/K/mol | –
360 K | 182.5 J/K/mol | –
360.9 K | 182.62 J/K/mol | –
363.22 K | 183.54 J/K/mol | –
364.15 K | 183.8 J/K/mol | –
366.45 K | 185.01 J/K/mol | –
367.38 K | 185.01 J/K/mol | –
369.68 K | 185.57 J/K/mol | –
370 K | 185.85 J/K/mol | –
370.61 K | 186.07 J/K/mol | –
372.9 K | 186.88 J/K/mol | –
373.83 K | 187.15 J/K/mol | –
376.11 K | 187.95 J/K/mol | –
377.04 K | 188.3 J/K/mol | –
379.31 K | 189.23 J/K/mol | –
380 K | 189.36 J/K/mol | –
380.25 K | 189.56 J/K/mol | –
390 K | 192.86 J/K/mol | –
394.96 K | 194.6 J/K/mol | 220.84 J/K/mol
399 K | – | 222.12 J/K/mol
400 K | – | 222.34 J/K/mol
401.94 K | – | 222.86 J/K/mol
404.87 K | – | 223.83 J/K/mol
407.79 K | – | 224.32 J/K/mol
410 K | – | 225.31 J/K/mol
410.72 K | – | 225.87 J/K/mol
413.63 K | – | 226.31 J/K/mol
